Data as given in patent US20260256748A1, “LANIFIBRANOR FOR USE IN THE TREATMENT OF SPLANCHNIC VASODILATATION IN A PATIENT WITH A LIVER CONDITION” (INVENTIVA, priority 2023, published 2026).

Legend:
Format in all cases: in vivo, mouse
[1] = tested on: Swiss mice with partial portal vein ligation (PPVL); assay: Hemodynamic parameters (flow superior mesenteric artery) in partial portal vein ligation (PPVL) model; conditions: lanifibranor 30 mg/kg daily for 7 days, started one week after ligation
Experimental: (§1) Experiments were carried out using Swiss mice (7 to 10 animals per groups). Portal hypertension was induced using the partial portal vein ligation (PPVL) model. A midline abdominal incision was performed and the portal vein was separated from the surrounding tissue. A ligature (silk cut 5-0) was tied around both portal vein and adjacent 27-gauge blunt-tipped needle. Subsequent removal of the needle yielded a calibrated stenosis of the portal vein. One week after the ligation mice received daily lanifibranor (10 mg/kg or 30 mg/kg) or vehicle in a therapeutic setting for 7 days. The effect of lanifibranor on angiogenesis was evaluated by analyzing hepatic and systemic hemodynamics, serum, hepatic and mesenteric histology. The vascular corrosion casting is a technic allowing the capture of the 3D structure of the vascular bed. Briefly the vascular corrosion casts were obtained by inserting, after euthanasia, a 26-gauge catheter into the ileocolic vein, which was then perfused with Batson n°17 solution. The soft tissue was dissolved overnight in a 25% potassium hydroxide solution. The vascular corrosion casts of the venous mesenteric vasculature were analyzed using μCT.

[2] = tested on: Swiss mice with partial portal vein ligation (PPVL); assay: Spleen weight in partial portal vein ligation (PPVL) model; conditions: for spleen weight: control 0.38, PPVL 0.63; for reduction of spleen weight: control 0.38, PPVL 0.63% body weight
Experimental: as §1

[3] = tested on: Swiss mice with partial portal vein ligation (PPVL); assay: Corrosion vascular casting of venous mesenteric vasculature analyzed by μCT in PPVL model; conditions: for mesenteric vascular wall thickness: control 20.31, PPVL 37.53
Experimental: as §1

[4] = tested on: Swiss mice with partial portal vein ligation (PPVL); assay: Immunohistochemistry staining for CD34 (angiogenesis and vascular expansion) in mesenteric area in PPVL model
Experimental: as §1, with “μCT. Evaluation of the vasculature system with an immunohistochemistry staining for CD34 allow to highlight the increase of blood vessels in the mesenteric area in PPVL animals. […]” for “μCT.”

O=C(O)CCCc1cc2cc(Cl)ccc2n1S(=O)(=O)c1ccc2ncsc2c1 [lanifibranor, 4-[1-(1,3-benzothiazol-6-ylsulfonyl)-5-chloroindol-2-yl]butanoic acid]
reduction of flow superior mesenteric artery [1]: 51.7%
spleen weight ([2]; 10 mg/kg daily for 7 days): 0.57 % body weight
reduction of spleen weight ([2]; 10 mg/kg daily for 7 days): 23.7%
spleen weight ([2]; 30 mg/kg daily for 7 days): 0.49 % body weight
reduction of spleen weight ([2]; 30 mg/kg daily for 7 days): 56.1%
reduction of mesenteric vascular wall thickness ([3]; 10 mg/kg daily for 7 days): 49.8%
mesenteric vascular wall thickness ([3]; 10 mg/kg daily for 7 days): 28.9 µm
reduction of mesenteric vascular wall thickness ([3]; 30 mg/kg daily for 7 days): 52.3%
mesenteric vascular wall thickness ([3]; 30 mg/kg daily for 7 days): 28.5 µm
expansion of the venous mesenteric vasculature ([3]; lanifibranor treatment, data not shown): reduced
reduction of staining for CD34 ([4]; 10 mg/kg daily for 7 days): 69.5%
reduction of staining for CD34 ([4]; 30 mg/kg daily for 7 days): 135.8%
